Results as given in US8008292B2, “Condensed benzamide compounds and inhibitors of vanilloid receptor subtype 1 (VR1) activity” (Japan Tobacco Inc., priority 2004, dated 2011).

Each compound was assayed against T1, human VR1 (Homo sapiens, UniProt Q8NER1) (assay: Inhibition of Ca2+ entry in cells caused by proton, in rat glioma (C6BU1) cells stably expressing human VR1 (Fura 2 fluorescence)). Settings: inhibition of proton-induced Ca2+ entry.
T1 construct: expressed in transfected cells
T1 sequence (Q8NER1 whole entry): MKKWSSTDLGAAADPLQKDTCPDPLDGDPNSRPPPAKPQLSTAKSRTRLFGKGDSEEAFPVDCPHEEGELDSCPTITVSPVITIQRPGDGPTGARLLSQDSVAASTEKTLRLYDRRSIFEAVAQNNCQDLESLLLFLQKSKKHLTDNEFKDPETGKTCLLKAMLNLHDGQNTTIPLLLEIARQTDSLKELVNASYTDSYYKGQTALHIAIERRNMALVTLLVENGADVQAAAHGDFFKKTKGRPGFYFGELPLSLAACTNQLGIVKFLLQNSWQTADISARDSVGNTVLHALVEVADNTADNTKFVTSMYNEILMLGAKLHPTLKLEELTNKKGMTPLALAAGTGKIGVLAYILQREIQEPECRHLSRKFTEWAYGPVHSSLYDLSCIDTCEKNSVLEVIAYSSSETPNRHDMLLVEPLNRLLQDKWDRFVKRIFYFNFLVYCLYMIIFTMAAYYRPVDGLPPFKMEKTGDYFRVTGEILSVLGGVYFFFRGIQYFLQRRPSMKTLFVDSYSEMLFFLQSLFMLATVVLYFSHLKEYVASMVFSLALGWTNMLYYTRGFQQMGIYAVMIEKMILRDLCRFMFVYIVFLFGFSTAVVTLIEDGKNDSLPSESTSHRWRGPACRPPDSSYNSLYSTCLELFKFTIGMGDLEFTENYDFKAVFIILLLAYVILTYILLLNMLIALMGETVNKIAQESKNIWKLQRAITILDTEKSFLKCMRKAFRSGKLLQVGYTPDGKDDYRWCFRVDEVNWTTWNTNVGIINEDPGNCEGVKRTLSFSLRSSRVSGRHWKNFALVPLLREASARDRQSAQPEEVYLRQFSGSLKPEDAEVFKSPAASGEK
Assay type: cell-based
Description: The assay for evaluation of VR1 inhibition by the inventive compounds will be described below. The assay was intended to evaluate in vitro inhibition of Ca^2+ entry in cells caused by proton, one of the VR1 agonists.
Rat glioma (C6BU1) cells stably expressing human VR1 were suspended in 20 mM MES buffer (at pH 6.8, contg. 20 mM 2-morpholinoethanesulfonate (referred to as MES hereinafter), 115 mM NaCl, 5 mM KCl, 1 mM MgCl2 and 14 mM D-glucose) to make a cell density of 1×10^6 cells/mL. A fluorescent dye, Fura 2-AMsolution (DojindoCorporate, Cat. No. 343-05401) was added to the suspension to make a 5 μM concentration thereof. Further, Pluronic F-127 (Wako Pure Chemical Industries, Ltd., Cat. No. P6866) was added to make a 0.1% content thereof. Then, the suspension was incubated at 37° C. for 30 min. The cells were harvested and washed three times with 20 mM MES buffer. The cells were suspended again to make a cell density of 5×10^5 cells/mL. A 500-μL portion of the suspension was taken with a cuvette (MC MEDICAL, INC., Cat. No. SSR3121), to which 10 μL of 20 mM MES buffer containing 250 mM CaCl2 was added to incorporate Ca^2+ into the cells. At the same time, 5 μL of a test compound solution (in a range of 100 μM to 10 nM in DMSO) was also added to provide a final concentration thereof in a range of 1 μM to 0.1 nM. Alternatively, 5 μL of DMSO was added as control to provide a final concentration of 1% DMSO. The suspension was set in an intracellular ionometer (CAF-110; JASCO) 10 min after those additions. The cells were stimulated with protons by addition of 60 μL of 20 mM MES buffer at pH 1.1 to the suspension to set its pH at 5.5. The activity of the test compound was determined as a difference between the minimum of fluorescence intensity before agonist stimulation and its maximum after the stimulation. The value of IC50 was derived from percentage of inhibition by the test compound compared with the control.
In the tables, the symbol “++” indicates an IC50 value less than 100 nM and the symbol “+” indicates an IC50 value of 100 nM to 1,000 nM inclusive.
An IC50 of less than 100 nM was found for `COc1ccc(NC(=O)c2cccc3c2OCCN3c2ccc(C)cn2)cc1F` [Example 1-159] in this work. An IC50 of less than 100 nM was found for `CC(C)(C)c1ccc(NC(=O)c2cccc3c2OCCN3c2cc(Cl)ccn2)cc1` [Example 1-148] in this work. An IC50 of less than 100 nM was found for `Cc1ccc(N2CCOc3c(C(=O)Nc4ccc(OC5CCN(C(=O)OC(C)(C)C)CC5)c(F)c4)cccc32)nc1` [Example 1-174] in this work. An IC50 of less than 100 nM was found for `O=C(Nc1ccc(OC(F)F)cc1)c1cccc2c1OCCN2c1ncc(CO)cc1Cl` [Example 2-44] in this work. An IC50 of less than 100 nM was found for `COC1CCN(c2ccc(NC(=O)c3cccc4c3OCCN4c3ccc(C)cn3)cc2F)CC1` [Example 1-169] in this work. An IC50 of less than 100 nM was found for `CC(C)OC1CCN(c2ccc(NC(=O)c3cccc4c3OCCN4c3ncccc3Cl)cc2F)CC1` [Example 1-103] in this work. An IC50 of 100 to 1000 nM was found for `CC(=O)OC1CCN(c2ccc(NC(=O)c3cccc4c3OCCN4c3ccc(C)cn3)cc2F)CC1` [Example 1-170] in this work. An IC50 of less than 100 nM was found for `COC1CCN(c2ccc(NC(=O)c3cccc4c3OCCN4c3ncccc3Cl)cc2F)CC1` [Example 1-101] in this work. An IC50 of less than 100 nM was found for `Cc1ccc(N2CCOc3c(C(=O)Nc4ccc(Cl)c(C(C)(C)C)c4)cccc32)nc1` [Example 1-081] in this work. An IC50 of 100 to 1000 nM was found for `CCc1cnc(N2CCOc3c(C(=O)Nc4ccc(Cl)cc4)cccc32)nc1` [Example 5-2, N-(4-chlorophenyl)-4-(5-ethylpyrimidin-2-yl)-3,4-dihydro-2H-benzo[1,4]oxazine-8-carboxamide] in this work. An IC50 of less than 100 nM was found for `COc1ccc(N2CCOc3c(C(=O)Nc4ccc(OCC(C)C)cc4)cccc32)cc1` [Example 7-02, N-(4-isobutyloxyphenyl)-4-(4-methoxyphenyl)-3,4-dihydro-2H-benzo[1,4]oxazine-8-carboxamide] in this work. An IC50 of less than 100 nM was found for `Cc1ccc(N2CCOc3c(C(=O)N[C@H]4CC[C@H](OCC(C)(C)C)CC4)cccc32)nc1` [Example 1-193] in this work. An IC50 of less than 100 nM was found for `CC(O)c1cnc(N2CCOc3c(C(=O)Nc4ccc(OC(F)(F)F)cc4)cccc32)c(Cl)c1` (stereo not shown) [Example 2-48] in this work. An IC50 of less than 100 nM was found for `Cc1ccc(N2CCOc3c(C(=O)NCCc4cccc(Cl)c4)cccc32)nc1` [Example 1-126] in this work. An IC50 of 100 to 1000 nM was found for `O=C(Nc1ccc(F)c([N+](=O)[O-])c1)c1cccc2c1OCCN2c1ncc(CO)cc1Cl` [Example 2-26] in this work. An IC50 of 100 to 1000 nM was found for `Cc1ccc(N2CCOc3c(C(=O)N[C@H]4CC[C@H](OC(C)C)CC4)cccc32)nc1` [Example 1-106] in this work. An IC50 of less than 100 nM was found for `CCOc1ccc(NC(=O)c2cccc3c2OCCN3c2ccc(Cl)cn2)cc1` [Example 1-120] in this work. An IC50 of less than 100 nM was found for `O=C(Nc1cccc(OC(F)(F)F)c1)c1cccc2c1OCCN2c1ncc(CO)cc1Cl` [Example 2-47] in this work. An IC50 of less than 100 nM was found for `CC(C)Oc1ccc(NC(=O)c2cccc3c2OCCN3c2ncccc2Cl)cc1` [Example 1-007] in this work. An IC50 of less than 100 nM was found for `COc1cnc(N2CCOc3c(C(=O)Nc4ccc(OC(F)(F)F)cc4)cccc32)c(Cl)c1` [Example 1-199] in this work. An IC50 of less than 100 nM was found for `Cc1ccc(N2CCOc3c(C(=O)Nc4ccc(C)c(F)c4)cccc32)nc1` [Example 1-092] in this work. An IC50 of less than 100 nM was found for `CC(=O)OCCN(c1ccc(NC(=O)c2cccc3c2OCCN3c2ccc(C)cn2)cc1F)C(C)C` [Example 1-165] in this work. An IC50 of 100 to 1000 nM was found for `Cc1ccc(N2CCOc3c(C(=O)Nc4ccc(N(CCO)C(C)C)c(F)c4)cccc32)nc1` [Example 1-166] in this work. An IC50 of less than 100 nM was found for `Cc1ccc(N2c3cccc(C(=O)Nc4ccc(OC(F)(F)F)cc4)c3OC[C@@H]2CO)nc1` [Example 4-07, (S)-4-(5-picoline-2-yl)-3-hydroxylmethyl-N-(4-trifluoromethoxyphenyl)-3,4-dihydro-2H-benzo[1,4]oxazine-8-carboxamide] in this work. An IC50 of 100 to 1000 nM was found for `Cc1csc(N2CCOc3c(C(=O)Nc4ccc(OC(F)(F)F)cc4)cccc32)n1` [Example 5-5, 4-(4-methylthiazol-2-yl)-N-(4-trifluoromethoxyphenyl)-3,4-dihydro-2H-benzo[1,4]oxazine-8-carboxamide] in this work. An IC50 of less than 100 nM was found for `CC(C)c1ccc(NC(=O)c2cccc3c2OCCN3c2ncccc2Cl)cc1` [Example 1-031] in this work. An IC50 of 100 to 1000 nM was found for `CC(C)(C)ON1CCC(NC(=O)c2cccc3c2OCCN3c2ncccc2Cl)CC1` [Example 1-043] in this work. An IC50 of less than 100 nM was found for `COc1ccc(N2CCOc3c(C(=O)Nc4ccc(OC(F)(F)F)cc4)cccc32)nc1` [Example 1-202] in this work. An IC50 of less than 100 nM was found for `CC(C)c1ccc(NC(=O)c2cccc3c2OCCN3c2ncc(CO)cc2Cl)cc1` [Example 2-46] in this work. An IC50 of 100 to 1000 nM was found for `COc1ccc(NC(=O)c2cccc3c2OCCN3c2ncccc2Cl)cc1` [Example 1-023] in this work. An IC50 of less than 100 nM was found for `O=C(Nc1ccc(C(F)(F)F)cc1)c1cccc2c1OCCN2c1ccc(F)cn1` [Example 1-149] in this work. An IC50 of 100 to 1000 nM was found for `CNC(=O)c1cc(NC(=O)c2cccc3c2OCCN3c2ccc(C)cn2)ccc1OCC(C)C` [Example 1-076] in this work. An IC50 of less than 100 nM was found for `CC(C)CNc1ccc(NC(=O)c2cccc3c2OCCN3c2ncccc2Cl)cc1F` [Example 1-104] in this work. An IC50 of less than 100 nM was found for `Cc1cnc(N2c3cccc(C(=O)Nc4ccc(OC(C)(C)C)c(F)c4)c3OC[C@@H]2CO)s1` [Example 6-5] in this work. An IC50 of less than 100 nM was found for `CC(C)(C)c1ccc(NC(=O)c2cccc3c2OCCN3c2ccc([N+](=O)[O-])cn2)cc1` [Example 1-140] in this work. An IC50 of 100 to 1000 nM was found for `O=C(Nc1ccc(OC(F)(F)F)cc1)c1cccc2c1OCCN2c1ccc(OCCO)cn1` [Example 1-200] in this work. An IC50 of less than 100 nM was found for `CCOc1ccc(NC(=O)c2cccc3c2OCCN3c2ccc(C)cn2)cc1` [Example 1-160] in this work. An IC50 of 100 to 1000 nM was found for `O=C(Nc1ccc(OC(F)(F)F)cc1)c1cccc2c1OC(CO)CN2c1ncccc1Cl` (stereo not shown) [Example 1-231] in this work. An IC50 of less than 100 nM was found for `CN(C)c1ccc(NC(=O)c2cccc3c2OCCN3c2ncccc2Cl)cc1C(F)(F)F` [Example 1-054] in this work. An IC50 of less than 100 nM was found for `COc1cc(NC(=O)c2cccc3c2OCCN3c2ccc(C)cn2)ccc1C` [Example 1-172] in this work. An IC50 of 100 to 1000 nM was found for `O=C(O)c1cnc(N2CCOc3c(C(=O)Nc4ccc(OC(F)(F)F)cc4)cccc32)c(Cl)c1` [Example 1-196] in this work. An IC50 of less than 100 nM was found for `O=C(Nc1ccc(OC(F)(F)F)cc1)c1cccc2c1OCCN2c1ncc(CO)cc1Cl` [Example 2-03, N-(4-trifluoromethoxyphenyl)-4-(3-chloro-5-hydroxymethylpyridin-2-yl)-3,4-dihydro-2H-benzo[1,4]oxazine-8-carboxamide] in this work. An IC50 of 100 to 1000 nM was found for `Cc1ccnc(N2CCOc3c(C(=O)Nc4ccc(C(C)(C)C)cc4)cccc32)c1` [Example 1-058, N-(4-tert-butylphenyl)-4-(4-methylpyridin-2-yl)-3,4-dihydro-2H-benzo[1,4]oxazine-8-carboxamide] in this work. An IC50 of less than 100 nM was found for `CC(C)COc1ccc(NC(=O)c2cccc3c2OCCN3c2ncccc2Cl)cc1` [Example 1-011] in this work. An IC50 of less than 100 nM was found for `CC1COc2c(C(=O)Nc3ccc(C(C)(C)C)cc3)cccc2N1c1ncccc1Cl` (stereo not shown) [Example 1-003, N-(4-tert-butylphenyl)-4-(3-chloropyridin-2-yl)-3-methyl-3,4-dihydro-2H-benzo[1,4]oxazine-8-carboxamide] in this work. An IC50 of less than 100 nM was found for `CCCOc1ccc(NC(=O)c2cccc3c2OCCN3c2ccc(C)cn2)cc1` [Example 1-084] in this work. An IC50 of less than 100 nM was found for `CCOc1ccc(NC(=O)c2cccc3c2OCCN3c2ncccc2Cl)cc1` [Example 1-094] in this work. An IC50 of less than 100 nM was found for `Cc1cnc(N2c3cccc(C(=O)Nc4ccc(OC(C)C)c(F)c4)c3OC[C@@H]2CO)s1` [Example 6-4] in this work. An IC50 of less than 100 nM was found for `Cc1cnc(N2CCOc3c(C(=O)Nc4ccc(OC(F)(F)F)cc4)cccc32)s1` [Example 5-6, 4-(5-methylthiazol-2-yl)-N-(4-trifluoromethoxyphenyl)-3,4-dihydro-2H-benzo[1,4]oxazine-8-carboxamide] in this work. An IC50 of less than 100 nM was found for `Cc1cnc(N2c3cccc(C(=O)Nc4ccc(C(F)(F)F)cc4)c3OC[C@@H]2CO)o1` [Example 6-12, (S)-3-hydroxymethyl-4-(5-methyloxazol-2-yl)-N-(4-trifluoromethylphenyl)-3,4-dihydro-2H-benzo[1,4]oxazine-8-carboxamide] in this work. An IC50 of less than 100 nM was found for `CCOc1cc(NC(=O)c2cccc3c2OCCN3c2ccc(C)cn2)ccc1C` [Example 1-087] in this work. An IC50 of less than 100 nM was found for `CC(C)COc1ccc(NC(=O)c2cccc3c2OCCN3c2ncccc2Cl)cc1C(F)(F)F` [Example 1-057] in this work. An IC50 of less than 100 nM was found for `Cc1ccc(N2c3cccc(C(=O)Nc4ccc(Br)c(F)c4)c3OC[C@@H]2CO)nc1` [Example 4-51] in this work. An IC50 of 100 to 1000 nM was found for `Cc1cccc(N2CCOc3c(C(=O)Nc4ccc(C(C)(C)C)cc4)cccc32)n1` [Example 1-059] in this work. An IC50 of less than 100 nM was found for `CC(C)COc1ccc(NC(=O)c2cccc3c2OCCN3c2ccc(CO)cn2)cc1` [Example 2-08, 4-(5-hydroxymethylpyridin-2-yl)-N-(4-isobutyloxyphenyl)-3,4-dihydro-2H-benzo[1,4]oxazine-8-carboxamide] in this work.
